Test: wn = mass fraction of the nth substance listed
Settings: Fluid (supercritical or subcritical phases), isochoric method, w1 = 0.5001

FC(F)C(F)(F)F [pentafluoroethane] + FCF
Settings | mass density [kg/m3]
348 K, 6505 kPa | 761.1
348 K, 9225 kPa | 859.2
348 K, 14528 kPa | 944
349 K, 5380 kPa | 475.9
349 K, 6732 kPa | 761
349 K, 9535 kPa | 859.1
349 K, 14929 kPa | 943.9
350 K, 5486 kPa | 475.9
350 K, 5543 kPa | 525.9
350 K, 5720 kPa | 615
350 K, 6957 kPa | 761
350 K, 9844 kPa | 859
350 K, 15331 kPa | 943.8
351 K, 5591 kPa | 475.9
351 K, 5661 kPa | 525.9
351 K, 5866 kPa | 615
351 K, 7184 kPa | 760.9
351 K, 10153 kPa | 859
351 K, 15729 kPa | 943.7
352 K, 5697 kPa | 475.9
352 K, 5778 kPa | 525.9
352 K, 5877 kPa | 571.5
352 K, 6013 kPa | 615
352 K, 7411 kPa | 760.8
352 K, 10462 kPa | 858.9
352 K, 16128 kPa | 943.6
353 K, 5802 kPa | 475.9
353 K, 5898 kPa | 525.9
353 K, 6010 kPa | 571.5
353 K, 6163 kPa | 615
353 K, 7640 kPa | 760.8
353 K, 10771 kPa | 858.8
353 K, 16529 kPa | 943.5
354 K, 5907 kPa | 475.9
354 K, 6017 kPa | 525.8
354 K, 6144 kPa | 571.4
354 K, 6312 kPa | 614.9
354 K, 7867 kPa | 760.7
354 K, 11082 kPa | 858.7
354 K, 16929 kPa | 943.4
355 K, 6013 kPa | 475.9
355 K, 6136 kPa | 525.8
355 K, 6277 kPa | 571.4
355 K, 6460 kPa | 614.9
355 K, 8099 kPa | 760.7
355 K, 11393 kPa | 858.7
355 K, 17330 kPa | 943.3
356 K, 6119 kPa | 475.9
356 K, 6256 kPa | 525.8
356 K, 6409 kPa | 571.4
356 K, 6610 kPa | 614.9
356 K, 8331 kPa | 760.6
356 K, 11703 kPa | 858.6
356 K, 17728 kPa | 943.3
357 K, 6227 kPa | 475.9
357 K, 6375 kPa | 525.8
357 K, 6544 kPa | 571.4
357 K, 6762 kPa | 614.8
357 K, 8563 kPa | 760.6
357 K, 12015 kPa | 858.5
357 K, 18129 kPa | 943.2
358 K, 6332 kPa | 475.9
358 K, 6496 kPa | 525.8
358 K, 6679 kPa | 571.3
358 K, 6913 kPa | 614.8
358 K, 8795 kPa | 760.5
358 K, 12328 kPa | 858.4
358 K, 18529 kPa | 943.1
359 K, 6438 kPa | 475.9
359 K, 6616 kPa | 525.8
359 K, 6814 kPa | 571.3
359 K, 7064 kPa | 614.8
359 K, 9028 kPa | 760.4
359 K, 12639 kPa | 858.4
359 K, 18928 kPa | 943
360 K, 6544 kPa | 475.9
360 K, 6737 kPa | 525.8
360 K, 6948 kPa | 571.3
360 K, 7219 kPa | 614.7
360 K, 9258 kPa | 760.4
360 K, 12952 kPa | 858.3
361 K, 6650 kPa | 475.8
361 K, 6858 kPa | 525.7
361 K, 7085 kPa | 571.3
361 K, 7368 kPa | 614.7
361 K, 9493 kPa | 760.3
361 K, 13265 kPa | 858.2
362 K, 6758 kPa | 475.8
362 K, 6980 kPa | 525.7
362 K, 7222 kPa | 571.2
362 K, 7523 kPa | 614.7
362 K, 9726 kPa | 760.3
362 K, 13581 kPa | 858.1
363 K, 6864 kPa | 475.8
363 K, 7101 kPa | 525.7
363 K, 7357 kPa | 571.2
363 K, 7676 kPa | 614.6
363 K, 9958 kPa | 760.2
